Results published in patent US9249115B2, “N,N1 substituted piperazines having combined antiaggregant, anticoagulant and vasodilatory activity, and method for producing same” (Vertex Closed Joint Stock Company, priority 2011, dated 2016).

Tests used:
mesentery venules = test: Vasodilator properties, microcirculatory vessel responsiveness to noradrenalin, venules; assay type: in vivo, Wistar male rats
Experimental: (§1) Vasodilator properties of N,N′-substituted piperazines were evaluated according to their influence on microcirculatory vessel responsiveness.
(§2) The studies were done on Wistar male rats with mass of 300±30 g (laboratory animals nursery “Rappolovo”, RAMS). The animals were kept with unlimited food (standard ration for laboratory rats K-120 by <<Inform-korm>>, Russia) and water allowance.
(§3) The solutions of N,N′-substituted piperazines and physiological (control) solution were introduced via bolus injection within 1 min into caudal vein of non-anaesthetized animals according to the dosage of 5.0 ml per 1 kg. Immediately after the introduction the animals were put in separate standard cages for observation.
(§4) In 30 min after the injection the animals were anaesthetized (thiopental sodium, 60 mg/kg intraperitoneally). The loop of small intestine adjoined to mesoappendix was retrieved through inferomedian incision. To study microcirculation in mesentery venules and arterioles in transmitted light the rat was placed on thermostated microscope objective table. The application of noradrenalin solution (Aguettant, 2 mg/ml, Laboratoire AGUETTANT, France) was done directly on the mesentery (Furness J. B., Marshall J. M., 1974; Yantareva L. I., 2004).
(§5) The study of microcirculatory vessels was done with LUMAM I1 microscope (LOMO, Russia). The recording of video data was done with the camera (Optics and Electronics ISTA Ltd) attached to a personal computer. The processing of data was done with Video-Test 4.0 software (ISTA Ltd., Russia). The diameter of the vessel wall (D, m) before and after the application of noradrenalin and the starting time of blood flow slowdown induced by noradrenalin were measured (the measurements were done for 1 min after the application).

mesentery arterioles = test: Vasodilator properties, microcirculatory vessel responsiveness to noradrenalin, arterioles; assay type: in vivo, Wistar male rats
Experimental: as §1, §2, §3, §4, §5

[1] = test system: experimental photothrombosis; test: Experimental photothrombosis model, arterial blood velocity; assay type: in vivo, Wistar male rats
Experimental: The studies were done on Wistar male rats with mass of 230±30 g (laboratory animals nursery “Rappolovo”, RAMS). The animals were kept with unlimited food (standard ration for laboratory rats K-120 by <<Inform-korm>>, Russia) and water allowance. […]
Thrombosis modeling: the drugs were introduced into left femoral vein, in 50 min afterwards 1 ml of Bengal rose A photosensitizer (Acros Organics, USA) solution was introduced with dose of 17 mg/kg [Boselli 2007, Petrischev 2009]. Then the incision of internal surface of animal right thigh about 2 cm in length was made. The section of the femoral vein about 5 mm in length was released from surrounding tissues and separated from neurovascular bundle. Beneath this section of the vein the black non-transparent plastic strip 3 mm in width was laid to screen off the vein and surrounding tissues from radiation. The irradiation was done using diode laser <<DPSS-laser>> (Diode Pumped Solid State Laser, South Korea) with 532 nm wavelength and 60 mW power. The area of irradiation was 1 mm^2, exposing time was 40 min. The blood flow in femoral artery was measured by high frequency Doppler ultrasonography method (<<Minimax-Doppler-K>> apparatus, frequency of sensor was 20 MHz). The blood velocity alteration due to irradiation was measured (Table 9).

[2] = in vivo; cited from earlier work
[3] = 0.01 mmol/kg, noradrenalin 10^−6 g/ml
[4] = 0.025 mmol/kg, noradrenalin 10^−7 g/ml

Row | Structure (SMILES) | % of vessel constriction (mesentery venules; [3]) [%] | Blood flow slowdown, Latent period of slowdown (mesentery venules; [3]) [s] | % of vessel constriction (mesentery venules; [4]) [%] | % of vessel constriction (mesentery arterioles; [3]) [%] | Blood flow slowdown, Latent period of slowdown (mesentery arterioles; [3]) [s] | % of vessel constriction (mesentery arterioles; [4]) [%] | V, cm/s (arterial blood velocity) ([1]; 0.01 mmol/kg, 0 min of irradiation) [cm/s] | V, cm/s (arterial blood velocity) ([1]; 0.01 mmol/kg, 10 min of irradiation) [cm/s] | V, cm/s (arterial blood velocity) ([1]; 0.01 mmol/kg, 20 min of irradiation) [cm/s] | V, cm/s (arterial blood velocity) ([1]; 0.01 mmol/kg, 30 min of irradiation) [cm/s] | V, cm/s (arterial blood velocity) ([1]; 0.01 mmol/kg, 40 min of irradiation) [cm/s] | V, cm/s (arterial blood velocity) ([1]; 0.025 mmol/kg, 0 min of irradiation) [cm/s] | V, cm/s (arterial blood velocity) ([1]; 0.025 mmol/kg, 10 min of irradiation) [cm/s] | V, cm/s (arterial blood velocity) ([1]; 0.025 mmol/kg, 20 min of irradiation) [cm/s] | V, cm/s (arterial blood velocity) ([1]; 0.025 mmol/kg, 30 min of irradiation) [cm/s] | V, cm/s (arterial blood velocity) ([1]; 0.025 mmol/kg, 40 min of irradiation) [cm/s] | dermal reactions that lead to treatment cessation [2] | gastrointestinal reactions that lead to treatment cessation [2]
1 | COc1ccc(CN2CCN(CC(CS(=O)(=O)[O-])OS(=O)(=O)[O-])CC2)c(OC)c1OC.[Na+].[Na+] (stereo not drawn) [Example 14, 2-sulfooxy-3-(4-((2,3,4-trimethoxyphenyl)-methyl)piperazine-1-yl)propane-1-sulfonic acid disodium salt monohydrate] | 33 | 41 ± 6 | 22 | 58 | 43 ± 4 | 28 | 6.9 ± 3.2 | 7.00 ± 2.0 | 6.8 ± 2.0 | 6.9 ± 1.3 | 6.6 ± 1.4 | 8.3 ± 1.8 | 8.1 ± 1.3 | 8.3 ± 2.0 | 8.0 ± 1.3 | 8.2 ± 1.2 |  | 
2 | Clc1ccccc1CN1CCc2sccc2C1 [ticlopidine] |  |  |  |  |  |  |  |  |  |  |  |  |  |  |  |  | 4-15% | up to 20%
